{"source": "ChEMBL document CHEMBL4732204", "about": "“Multitargeting application of proline-derived peptidomimetics addressing cancer-related human matrix metalloproteinase 9 and carbonic anhydrase II” (Eur J Med Chem, 2021)", "key": {"[1]": {"target": "Matrix metalloproteinase-9 (Homo sapiens, UniProt P14780)", "sequence (P14780 whole entry)": "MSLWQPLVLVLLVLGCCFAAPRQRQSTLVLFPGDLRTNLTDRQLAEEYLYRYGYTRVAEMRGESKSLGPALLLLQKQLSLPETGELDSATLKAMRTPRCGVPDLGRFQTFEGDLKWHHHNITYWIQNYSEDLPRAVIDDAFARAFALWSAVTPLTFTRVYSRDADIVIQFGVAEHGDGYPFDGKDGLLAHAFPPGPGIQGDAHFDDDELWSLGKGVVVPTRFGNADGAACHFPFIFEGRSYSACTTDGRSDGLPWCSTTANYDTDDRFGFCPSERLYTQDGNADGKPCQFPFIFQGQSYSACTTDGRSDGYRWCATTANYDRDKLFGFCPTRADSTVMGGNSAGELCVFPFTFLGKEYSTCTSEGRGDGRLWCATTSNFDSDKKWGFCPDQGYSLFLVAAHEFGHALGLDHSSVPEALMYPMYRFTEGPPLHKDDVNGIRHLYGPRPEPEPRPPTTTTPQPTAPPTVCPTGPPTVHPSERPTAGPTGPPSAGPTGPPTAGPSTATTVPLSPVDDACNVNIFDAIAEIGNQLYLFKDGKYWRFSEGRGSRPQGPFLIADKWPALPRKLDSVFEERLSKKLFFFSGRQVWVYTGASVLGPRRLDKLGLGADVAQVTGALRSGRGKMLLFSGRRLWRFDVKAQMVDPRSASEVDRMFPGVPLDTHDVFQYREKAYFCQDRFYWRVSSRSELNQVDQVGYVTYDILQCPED", "experiment": "Inhibition of MMP9 (unknown origin) using Mca-Lys-Pro-Leu-Gly-Leu-Dpa-Ala-Arg-NH2 as substrate incubated for 5 min followed by substrate addition and measured for 30 mins by fluorescence based assay"}, "[2]": {"target": "Carbonic anhydrase 1 (Homo sapiens, UniProt P00915)", "sequence (P00915 whole entry)": "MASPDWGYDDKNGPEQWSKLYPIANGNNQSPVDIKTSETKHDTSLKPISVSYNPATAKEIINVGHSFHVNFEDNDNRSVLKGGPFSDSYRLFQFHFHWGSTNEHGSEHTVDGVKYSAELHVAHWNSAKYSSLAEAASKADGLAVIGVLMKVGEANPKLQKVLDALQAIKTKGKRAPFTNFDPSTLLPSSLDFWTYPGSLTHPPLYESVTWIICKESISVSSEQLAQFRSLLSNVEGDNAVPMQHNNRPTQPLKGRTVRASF", "experiment": "Inhibition of human CA1 incubated for 15 mins by stopped-flow CO2 hydration kinetic assay based Cheng-Prusoff equation analysis"}, "[3]": {"target": "Carbonic anhydrase 2 (Homo sapiens, UniProt P00918)", "experiment": "Inhibition of human CA2 incubated for 15 mins by stopped-flow CO2 hydration kinetic assay based Cheng-Prusoff equation analysis"}, "[4]": {"target": "72 kDa type IV collagenase (Homo sapiens, UniProt P08253)", "sequence (P08253 whole entry)": "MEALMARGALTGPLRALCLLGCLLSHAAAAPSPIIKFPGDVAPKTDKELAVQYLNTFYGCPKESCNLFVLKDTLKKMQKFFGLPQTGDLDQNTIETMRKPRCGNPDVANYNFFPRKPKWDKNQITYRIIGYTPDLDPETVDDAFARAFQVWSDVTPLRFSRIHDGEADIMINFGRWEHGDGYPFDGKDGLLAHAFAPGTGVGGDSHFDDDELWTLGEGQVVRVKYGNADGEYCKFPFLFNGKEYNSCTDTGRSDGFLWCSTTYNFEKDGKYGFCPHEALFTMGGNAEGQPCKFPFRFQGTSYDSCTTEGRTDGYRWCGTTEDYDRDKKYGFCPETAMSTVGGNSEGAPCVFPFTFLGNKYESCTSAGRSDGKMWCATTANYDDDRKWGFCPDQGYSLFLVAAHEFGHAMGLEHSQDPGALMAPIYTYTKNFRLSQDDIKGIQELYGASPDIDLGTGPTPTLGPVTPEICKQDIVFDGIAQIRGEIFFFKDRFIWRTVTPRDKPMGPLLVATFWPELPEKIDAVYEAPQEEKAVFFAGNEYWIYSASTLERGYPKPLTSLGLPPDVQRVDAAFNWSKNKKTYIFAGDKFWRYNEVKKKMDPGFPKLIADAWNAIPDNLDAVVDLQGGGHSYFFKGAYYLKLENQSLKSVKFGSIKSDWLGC"}, "[5]": {"target": "Carbonic anhydrase 9 (Homo sapiens, UniProt Q16790)", "experiment": "Inhibition of human CA9 incubated for 15 mins by stopped-flow CO2 hydration kinetic assay based Cheng-Prusoff equation analysis"}, "[6]": {"target": "Carbonic anhydrase 12 (Homo sapiens, UniProt O43570)", "sequence (O43570 whole entry)": "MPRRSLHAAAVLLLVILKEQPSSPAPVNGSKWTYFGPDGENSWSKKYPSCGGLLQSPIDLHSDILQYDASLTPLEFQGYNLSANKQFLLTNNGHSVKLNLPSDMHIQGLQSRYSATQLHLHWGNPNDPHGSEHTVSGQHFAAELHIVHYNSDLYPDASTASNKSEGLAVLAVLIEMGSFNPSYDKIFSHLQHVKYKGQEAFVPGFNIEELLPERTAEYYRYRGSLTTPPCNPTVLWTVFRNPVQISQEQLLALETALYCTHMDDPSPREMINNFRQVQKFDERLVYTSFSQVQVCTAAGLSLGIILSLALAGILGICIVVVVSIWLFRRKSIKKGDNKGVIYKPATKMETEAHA", "experiment": "Inhibition of human CA12 incubated for 15 mins by stopped-flow CO2 hydration kinetic assay based Cheng-Prusoff equation analysis"}}}
{"molecule": "O=C(NO)[C@H]1C[C@@H](n2cc(-c3ccccc3)nn2)CN1S(=O)(=O)c1ccc(Cl)c(Cl)c1", "values": [{"measurement": "Ki", "setting": "[1]", "value": "> 10000", "unit": "nM"}, {"measurement": "Ki", "setting": "[2]", "value": "> 100", "unit": "µM"}, {"measurement": "Ki", "setting": "[3]", "value": "> 100", "unit": "µM"}]}
{"molecule": "O=C(N[C@H]1C[C@H](C(=O)NO)N(S(=O)(=O)c2ccc(Cl)c(Cl)c2)C1)c1cccs1", "values": [{"measurement": "Ki", "setting": "[1]", "value": "> 10000", "unit": "nM"}, {"measurement": "Ki", "setting": "[2]", "value": "> 100", "unit": "µM"}, {"measurement": "Ki", "setting": "[3]", "value": "> 100", "unit": "µM"}, {"measurement": "Ki", "setting": "[4]", "value": "> 10000", "unit": "nM"}]}
{"molecule": "O=C(N[C@@H]1C[C@H](C(=O)NO)N(S(=O)(=O)c2ccc(Cl)c(Cl)c2)C1)c1cccs1", "values": [{"measurement": "Ki", "setting": "[1]", "value": 91, "unit": "nM"}, {"measurement": "Ki", "setting": "[2]", "value": "> 100", "unit": "µM"}, {"measurement": "Ki", "setting": "[3]", "value": "> 100", "unit": "µM"}, {"measurement": "Ki", "setting": "[4]", "value": 131, "unit": "nM"}]}
{"molecule": "O=C(/C=C/c1ccco1)N[C@H]1C[C@H](C(=O)NO)N(S(=O)(=O)c2ccc(Cl)c(Cl)c2)C1", "values": [{"measurement": "Ki", "setting": "[1]", "value": 324, "unit": "nM"}, {"measurement": "Ki", "setting": "[2]", "value": "> 100", "unit": "µM"}, {"measurement": "Ki", "setting": "[3]", "value": "> 100", "unit": "µM"}]}
{"molecule": "O=C(NO)[C@H]1[C@@H](OCc2ccccc2)CCN1S(=O)(=O)c1ccc(Cl)c(Cl)c1", "values": [{"measurement": "Ki", "setting": "[1]", "value": "> 10000", "unit": "nM"}, {"measurement": "Ki", "setting": "[2]", "value": "> 100", "unit": "µM"}, {"measurement": "Ki", "setting": "[3]", "value": "> 100", "unit": "µM"}]}
{"molecule": "CCCCCCO[C@H]1CCN(S(=O)(=O)c2ccc(Cl)cc2)[C@H]1C(=O)NO", "values": [{"measurement": "Ki", "setting": "[1]", "value": "> 10000", "unit": "nM"}, {"measurement": "Ki", "setting": "[2]", "value": "> 100", "unit": "µM"}, {"measurement": "Ki", "setting": "[3]", "value": "> 100", "unit": "µM"}, {"measurement": "Ki", "setting": "[4]", "value": "> 10000", "unit": "nM"}]}
{"molecule": "O=C(NO)[C@H]1C[C@H](n2cc(-c3ccccc3)nn2)CN1S(=O)(=O)c1ccc(Cl)c(Cl)c1", "values": [{"measurement": "Ki", "setting": "[1]", "value": 1550, "unit": "nM"}, {"measurement": "Ki", "setting": "[2]", "value": "> 100", "unit": "µM"}, {"measurement": "Ki", "setting": "[3]", "value": "> 100", "unit": "µM"}]}
{"molecule": "O=C(NO)[C@H]1C[C@@H](NS(=O)(=O)c2ccc(-c3ccccc3)cc2)CN1S(=O)(=O)c1ccc(Cl)c(Cl)c1", "values": [{"measurement": "Ki", "setting": "[1]", "value": 541, "unit": "nM"}, {"measurement": "Ki", "setting": "[2]", "value": "> 100", "unit": "µM"}, {"measurement": "Ki", "setting": "[3]", "value": 24.8, "unit": "µM"}, {"measurement": "Ki", "setting": "[5]", "value": "> 100", "unit": "µM"}, {"measurement": "Ki", "setting": "[6]", "value": 67.2, "unit": "µM"}, {"measurement": "Ki", "setting": "[4]", "value": "> 10000", "unit": "nM"}]}
{"molecule": "O=C(NO)[C@H]1C[C@H](NS(=O)(=O)c2ccc(-c3ccccc3)cc2)CN1S(=O)(=O)c1ccc(Cl)c(Cl)c1", "values": [{"measurement": "Ki", "setting": "[1]", "value": 57, "unit": "nM"}, {"measurement": "Ki", "setting": "[2]", "value": "> 100", "unit": "µM"}, {"measurement": "Ki", "setting": "[3]", "value": 6.68, "unit": "µM"}, {"measurement": "Ki", "setting": "[5]", "value": "> 100", "unit": "µM"}, {"measurement": "Ki", "setting": "[6]", "value": 98.5, "unit": "µM"}, {"measurement": "Ki", "setting": "[4]", "value": 328, "unit": "nM"}]}
{"molecule": "O=C(Nc1ccc(C(=O)Nc2ccc(S(=O)(=O)N3CCC[C@@H]3C(=O)NO)cc2)cc1)OCc1ccccc1", "values": [{"measurement": "Ki", "setting": "[1]", "value": 32, "unit": "nM"}, {"measurement": "Ki", "setting": "[2]", "value": "> 100", "unit": "µM"}, {"measurement": "Ki", "setting": "[3]", "value": "> 100", "unit": "µM"}, {"measurement": "Ki", "setting": "[4]", "value": 0.044, "unit": "nM"}]}
{"molecule": "COc1ccc(S(=O)(=O)N2CCC[C@@H]2C(=O)NO)cc1", "values": [{"measurement": "Ki", "setting": "[1]", "value": 20, "unit": "nM"}, {"measurement": "Ki", "setting": "[2]", "value": "> 100", "unit": "µM"}, {"measurement": "Ki", "setting": "[3]", "value": "> 100", "unit": "µM"}]}
{"molecule": "COc1ccc(S(=O)(=O)N2C[C@@H](NS(=O)(=O)c3ccc(-c4ccccc4)cc3)C[C@@H]2C(=O)O)cc1", "values": [{"measurement": "Ki", "setting": "[1]", "value": "> 100000", "unit": "nM"}, {"measurement": "Ki", "setting": "[2]", "value": 8.4, "unit": "µM"}, {"measurement": "Ki", "setting": "[3]", "value": 6.13, "unit": "µM"}, {"measurement": "Ki", "setting": "[5]", "value": 20.7, "unit": "µM"}, {"measurement": "Ki", "setting": "[6]", "value": 9.19, "unit": "µM"}, {"measurement": "Ki", "setting": "[4]", "value": "> 100000", "unit": "nM"}]}
{"molecule": "COc1ccc(S(=O)(=O)N2C[C@H](NC(=O)C(C)(C)C)C[C@@H]2C(=O)NO)cc1", "values": [{"measurement": "Ki", "setting": "[1]", "value": 123, "unit": "nM"}, {"measurement": "Ki", "setting": "[2]", "value": "> 100", "unit": "µM"}, {"measurement": "Ki", "setting": "[3]", "value": "> 100", "unit": "µM"}, {"measurement": "Ki", "setting": "[4]", "value": 26, "unit": "nM"}]}
{"molecule": "O=C(Nc1ccc(S(=O)(=O)N2CCC[C@@H]2C(=O)NO)cc1)OCc1ccccc1", "values": [{"measurement": "Ki", "setting": "[1]", "value": 473, "unit": "nM"}, {"measurement": "Ki", "setting": "[2]", "value": "> 100", "unit": "µM"}, {"measurement": "Ki", "setting": "[3]", "value": "> 100", "unit": "µM"}, {"measurement": "Ki", "setting": "[4]", "value": 2.16, "unit": "nM"}]}
{"molecule": "CS(=O)(=O)N1C[C@@H](NS(=O)(=O)c2ccc(-c3ccccc3)cc2)C[C@@H]1C(=O)NO", "values": [{"measurement": "Ki", "setting": "[1]", "value": 3880, "unit": "nM"}, {"measurement": "Ki", "setting": "[2]", "value": "> 100", "unit": "µM"}, {"measurement": "Ki", "setting": "[3]", "value": "> 100", "unit": "µM"}, {"measurement": "Ki", "setting": "[5]", "value": "> 100", "unit": "µM"}, {"measurement": "Ki", "setting": "[6]", "value": 47, "unit": "µM"}, {"measurement": "Ki", "setting": "[4]", "value": 2260, "unit": "nM"}]}
{"molecule": "O=C(NO)[C@H]1C[C@H](NS(=O)(=O)c2ccc(-c3ccccc3)cc2)CN1S(=O)(=O)c1ccc(-c2ccccc2)cc1", "values": [{"measurement": "Ki", "setting": "[1]", "value": 294, "unit": "nM"}, {"measurement": "Ki", "setting": "[2]", "value": "> 100", "unit": "µM"}, {"measurement": "Ki", "setting": "[3]", "value": "> 100", "unit": "µM"}, {"measurement": "Ki", "setting": "[5]", "value": 21.4, "unit": "µM"}, {"measurement": "Ki", "setting": "[6]", "value": 8.82, "unit": "µM"}, {"measurement": "Ki", "setting": "[4]", "value": 54, "unit": "nM"}]}
{"molecule": "COc1ccc(S(=O)(=O)N2C[C@@H](NS(=O)(=O)c3ccc(-c4ccccc4)cc3)C[C@@H]2C(=O)NO)cc1", "values": [{"measurement": "Ki", "setting": "[1]", "value": 482, "unit": "nM"}, {"measurement": "Ki", "setting": "[2]", "value": "> 100", "unit": "µM"}, {"measurement": "Ki", "setting": "[3]", "value": "> 100", "unit": "µM"}, {"measurement": "Ki", "setting": "[5]", "value": "> 100", "unit": "µM"}, {"measurement": "Ki", "setting": "[6]", "value": "> 100", "unit": "µM"}, {"measurement": "Ki", "setting": "[4]", "value": 406, "unit": "nM"}]}
{"molecule": "O=C(Nc1ccc(S(=O)(=O)N2CCC[C@@H]2C(=O)NO)cc1)c1ccc([N+](=O)[O-])cc1", "values": [{"measurement": "Ki", "setting": "[1]", "value": 0.11, "unit": "nM"}, {"measurement": "Ki", "setting": "[2]", "value": "> 100", "unit": "µM"}, {"measurement": "Ki", "setting": "[3]", "value": "> 100", "unit": "µM"}, {"measurement": "Ki", "setting": "[4]", "value": 0.087, "unit": "nM"}]}
{"molecule": "O=C(NO)[C@H]1C[C@H](NS(=O)(=O)c2ccc(-c3ccccc3)cc2)CN1S(=O)(=O)c1ccc(OC(F)(F)F)cc1", "values": [{"measurement": "Ki", "setting": "[1]", "value": "> 100000", "unit": "nM"}, {"measurement": "Ki", "setting": "[2]", "value": "> 100", "unit": "µM"}, {"measurement": "Ki", "setting": "[3]", "value": "> 100", "unit": "µM"}, {"measurement": "Ki", "setting": "[5]", "value": "> 100", "unit": "µM"}, {"measurement": "Ki", "setting": "[6]", "value": "> 100", "unit": "µM"}, {"measurement": "Ki", "setting": "[4]", "value": "> 100000", "unit": "nM"}]}
{"molecule": "O=C(NO)[C@H]1CCCN1S(=O)(=O)c1ccc(C#Cc2ccccc2)cc1", "values": [{"measurement": "Ki", "setting": "[1]", "value": 0.83, "unit": "nM"}, {"measurement": "Ki", "setting": "[2]", "value": "> 100", "unit": "µM"}, {"measurement": "Ki", "setting": "[3]", "value": "> 100", "unit": "µM"}, {"measurement": "Ki", "setting": "[4]", "value": 0.25, "unit": "nM"}]}
{"molecule": "O=C(NO)[C@H]1C[C@H](NS(=O)(=O)c2ccc(-c3ccccc3)cc2)CN1S(=O)(=O)c1ccc([N+](=O)[O-])cc1", "values": [{"measurement": "Ki", "setting": "[1]", "value": "> 100000", "unit": "nM"}, {"measurement": "Ki", "setting": "[2]", "value": 52.9, "unit": "µM"}, {"measurement": "Ki", "setting": "[3]", "value": 44.8, "unit": "µM"}, {"measurement": "Ki", "setting": "[5]", "value": 23.3, "unit": "µM"}, {"measurement": "Ki", "setting": "[6]", "value": "> 100", "unit": "µM"}]}
